Test results reported in patent US4299821A, “Tripeptides acting on the central nervous system and a process for the preparation thereof” (Richter Gedeon Vegyeszeti Gyar Rt., priority 1979, dated 1981).
Where a SMILES comes first, the peptide text is derived from it. [ ]: non-standard residue; d: D form. pGlu = O=C1CC[C@@H](C(=O)O)N1; Nle = CCCC[C@H](N)C(=O)O; Nva = CCC[C@H](N)C(=O)O; Abu = CC[C@H](N)C(=O)O

Legend:
[1] = system: Haloperidol-induced catalepsy; assay: Inhibition of Haloperidol-induced catalepsy on rats; format: in vivo, male Wistar rats; settings: 40 mg/kg Haloperidol s.c., compound i.v. 120 min later, probit analysis, observation time per compound
Protocol: (1) Inhibition of Haloperidol-induced catalepsy on rats (see J. Delay and P. Deniker: Compt. Rend. Congr. Med. Alenistes Neurologistes, 19, 497, Luxembourg, 1952)
The tests were performed on male Wistar rats weighing 160 to 180 g.
40 mg/kg of 4-(p-chlorophenyl)-1-(3-/p-fluorobenzoyl/propyl)-piperidin-4-ol(Haloperidol) were administered subcutaneously into the animals, and 120 minutes after this treatment the animals were checked for the appearance of catalepsy. The rats were divided into groups of 10 animals each, and treated intravenously with TRH or the new TRH analogues. The animals belonging to the control group received physiological saline. The catalepsy-suspending effects of the individual compounds were determined 15, 30, 60, 90 and 120 minutes after the treatment. The animals that had not changed their position for 30 seconds after placing their fore-paw onto a 7 cm high column were regarded as cataleptic.

[2] = system: locomotive activity induced by L-Dopa; assay: Potentiation of locomotive activity induced on mice by L-Dopa; format: in vivo, male mice; settings: Pargyline 40 mg/kg i.p., compound 20 mg/kg i.p., L-Dopa 100 mg/kg i.p., percent related to TRH; for Potentiation of the locomotive effect of L-Dopa % after 30': 30 min; for Potentiation of the locomotive effect of L-Dopa % after 60': 60 min; for Potentiation of the locomotive effect of L-Dopa % after 90': 90 min
Protocol: (2) Potentiation of locomotive activity induced on mice by L-Dopa (see The Thyroid Axis, Drugs and Behavior, p. 116, A. J. Prage Jr., Raven Press, New York, 1974)
The tests were performed on groups of 15 male mice each, weighing 18 to 22 g.
First, the animals were treated intraperitoneally with 40 mg/kg of N-methyl-N-propargyl-benzylamine (Pargyline), and then an intraperitoneal dosage of 20 mg/kg of TRH or a TRH-analogue was introduced, followed by an intraperitoneal dosage of 100 mg/kg of L-Dopa. The locomotive activity of the animals was recorded 30, 60 and 90 minutes after this treatment, and the level of potentiation was expressed in percents related to the results observed with TRH.

Reserpine hypothermy = assay: Reserpine hypothermy-reversing effect on mice; format: in vivo, male mice; settings: average of 10 animals; for Reserpine hypothermy reversing effect, Rectal temperature res.: 16 hours after reserpine 5 mg/kg i.p., before the tripeptide; for Reserpine hypothermy reversing effect, Rectal temperature norm.: prior to the administration of reserpine (baseline of the group); for Reserpine hypothermy reversing effect, Rectal temperature obs. time 1 h / Reserpine hypothermy reversing effect, Rectal temperature obs. time 2 h: reserpine 5 mg/kg i.p.; for Reserpine hypothermy reversing effect, Rectal temperature obs. time 1 h: 1 hour after 20 mg/kg of the tripeptide; for Reserpine hypothermy reversing effect, Rectal temperature obs. time 2 h: 2 hours after 20 mg/kg of the tripeptide
Protocol: (3) Reserpine hypothermy-reversing effect on mice (see B. M. Askew: Life Sci. 2, 725-730 /1963/)
The tests were performed on groups of 10 male mice each, weighing 18 to 22 g. Reserpine was administered into the animals in an intraperitoneal dosage of 5 mg/kg, and 16 hours later the animals were treated with 20 mg/kg of TRH or a tripeptide under examination.
The rectal temperature of the animals was measured prior to the administration of reserpine (marked by "norm." in Table 1), 16 hours after the administration of reserpine (marked by "res." in Table 1), furthermore 1 and 2 hours after the administration of the tripeptide (marked by "obs. time" in Table 1). The data listed in Table 1 are the averages of the temperatures observed on the 10 animals.

[3] = system: sleeping caused by hexobarbital; assay: Influencing the duration of sleeping caused by hexobarbital; format: in vivo, male mice; settings: mice, hexobarbital sodium 60 mg/kg i.v., 10 min later compound 20 mg/kg i.p.; control 38.4 ± 1.36 min.
Protocol: (4) Influencing the duration of sleeping caused by hexobarbital The tests were performed on groups of 10 male mice each. The animals were treated intravenously with 60 mg/kg of hexobarbital sodium ([…]; Bayer), and 10 minutes later 20 mg/kg of TRH or a tripeptide under examination were administered intraperitoneally into the animals. The sleeping times of the animals were recorded, averages were calculated for the individual groups, and the results were expressed as percents related to the control group.

Ethanol narcosis = assay: Ethanol narcosis; format: in vivo; settings: mice, 4.5 g ethanol i.p., 10 min later compound 20 mg/kg i.p.; control 46.9 ± 2.17 min.
Protocol: (5) Ethanol narcosis (see J. M. Cott et al.: J. Pharm. Exp. Ther. 196, 594 /1976/) The tests were performed on groups of 20 mice of both sexes, each weighing 18 to 22 g. […] of ethanol were introduced intraperitoneally into the animals, and 10 minutes later the animals were treated intraperitoneally with 20 mg/kg of TRH or a tripeptide under examination. The sleeping periods of the animals were recorded, averages were calculated for the individual groups, and the results were expressed as percents related to the control group.

TSH = assay: Hormonal activity (TSH effect) on rats; format: in vivo, male Wistar rats; settings: 20 mg/kg i.v., plasma TSH by radioimmune assay 15 min after treatment, relative activity, TRH = 100%
Protocol: (6) Hormonal activity (TSH effect) on rats
The tests were performed on groups of 7 or 8 male Wistar rats each, weighing 200 g. The animals were treated intravenously with 20 mg/kg of TRH or a tripeptide under examination. The TSH reaction of the animals was evaluated 15 minutes after this treatment, by subjecting the blood plasma to radioimmune assay. The relative activities were calculated by the four-point method using a TPA 101 computer, and the activity of TRH was regarded as 100%.

CCC[C@H](NC(=O)[C@@H]1CCC(=O)N1)C(=O)N1CCC[C@H]1C(N)=O [Nva Pro H, L-Pyroglutamyl-L-norvalyl-L-prolinamide] ([pGlu]-[Nva]-Pro-NH2)
Inhibition of Haloperidol catalepsy ED50 [1]: 11.4 mg/kg | Potentiation of the locomotive effect of L-Dopa % after 30' [2]: 254% | Potentiation of the locomotive effect of L-Dopa % after 60' [2]: 156% | Potentiation of the locomotive effect of L-Dopa % after 90' [2]: 214% | Reserpine hypothermy reversing effect, Rectal temperature res. (Reserpine hypothermy): 25.9 °C | Reserpine hypothermy reversing effect, Rectal temperature norm. (Reserpine hypothermy): 36.2 °C | Reserpine hypothermy reversing effect, Rectal temperature obs. time 1 h (Reserpine hypothermy): 36.4 °C | Reserpine hypothermy reversing effect, Rectal temperature obs. time 2 h (Reserpine hypothermy): 32.0 °C | Decrease of sleeping period (% related to the control animals) Hexobarb. [3]: 114% | Decrease of sleeping period (% related to the control animals) Ethanol (Ethanol narcosis): 77% | TSH effect (TSH): 0%

CC[C@H](NC(=O)[C@@H]1CCC(=O)N1)C(=O)N1CCC[C@H]1C(N)=O [Abu Pro H, L-Pyroglutamyl-L-α-aminobutyl-L-prolinamide] ([pGlu]-[Abu]-Pro-NH2)
Inhibition of Haloperidol catalepsy ED50 [1]: 80 mg/kg | Potentiation of the locomotive effect of L-Dopa % after 30' [2]: 27% | Potentiation of the locomotive effect of L-Dopa % after 60' [2]: 14% | Potentiation of the locomotive effect of L-Dopa % after 90' [2]: 18% | Reserpine hypothermy reversing effect, Rectal temperature res. (Reserpine hypothermy): 19.7 °C | Reserpine hypothermy reversing effect, Rectal temperature norm. (Reserpine hypothermy): 36.3 °C | Reserpine hypothermy reversing effect, Rectal temperature obs. time 1 h (Reserpine hypothermy): 22.2 °C | Reserpine hypothermy reversing effect, Rectal temperature obs. time 2 h (Reserpine hypothermy): 25.4 °C | Decrease of sleeping period (% related to the control animals) Hexobarb. [3]: 84% | Decrease of sleeping period (% related to the control animals) Ethanol (Ethanol narcosis): 39% | TSH effect (TSH): 0.02%

CCNC(=O)[C@@H]1CCCN1C(=O)[C@H](CC(C)C)NC(=O)[C@@H]1CCC(=O)N1 [Leu Pro Et, L-Pyroglutamyl-L-leucyl-L-proline ethylamide] ([pGlu]-Leu-Pro-NHEt)
Inhibition of Haloperidol catalepsy ED50 [1]: 56.6 mg/kg | Potentiation of the locomotive effect of L-Dopa % after 30' [2]: 102% | Potentiation of the locomotive effect of L-Dopa % after 60' [2]: 90% | Potentiation of the locomotive effect of L-Dopa % after 90' [2]: 201% | Reserpine hypothermy reversing effect, Rectal temperature res. (Reserpine hypothermy): 28.7 °C | Reserpine hypothermy reversing effect, Rectal temperature norm. (Reserpine hypothermy): 36.2 °C | Reserpine hypothermy reversing effect, Rectal temperature obs. time 1 h (Reserpine hypothermy): 30.7 °C | Reserpine hypothermy reversing effect, Rectal temperature obs. time 2 h (Reserpine hypothermy): 33.4 °C | Decrease of sleeping period (% related to the control animals) Hexobarb. [3]: 126% | Decrease of sleeping period (% related to the control animals) Ethanol (Ethanol narcosis): 65% | TSH effect (TSH): 0%

NC(=O)[C@@H]1CCCCN1C(=O)[C@H](Cc1c[nH]cn1)NC(=O)[C@@H]1CCC(=O)N1 [His HPro H, L-Pyroglutamyl-L-histidyl-L-homoprolinamide]
Inhibition of Haloperidol catalepsy ED50 [1]: 13.7 mg/kg | Potentiation of the locomotive effect of L-Dopa % after 30' [2]: 209% | Potentiation of the locomotive effect of L-Dopa % after 60' [2]: 85% | Potentiation of the locomotive effect of L-Dopa % after 90' [2]: 110% | Reserpine hypothermy reversing effect, Rectal temperature res. (Reserpine hypothermy): 28.5 °C | Reserpine hypothermy reversing effect, Rectal temperature norm. (Reserpine hypothermy): 36.5 °C | Reserpine hypothermy reversing effect, Rectal temperature obs. time 1 h (Reserpine hypothermy): 35.3 °C | Reserpine hypothermy reversing effect, Rectal temperature obs. time 2 h (Reserpine hypothermy): 35.4 °C | Decrease of sleeping period (% related to the control animals) Hexobarb. [3]: 63% | Decrease of sleeping period (% related to the control animals) Ethanol (Ethanol narcosis): 114% | TSH effect (TSH): 68.6%

CCCC[C@H](NC(=O)[C@@H]1CCC(=O)N1)C(=O)N1CCC[C@H]1C(N)=O [Nleu Pro H, L-Pyroglutamyl-L-norleucyl-L-prolinamide] ([pGlu]-[Nle]-Pro-NH2)
Inhibition of Haloperidol catalepsy ED50 [1]: 16.8 mg/kg | Potentiation of the locomotive effect of L-Dopa % after 30' [2]: 249% | Potentiation of the locomotive effect of L-Dopa % after 60' [2]: 105% | Potentiation of the locomotive effect of L-Dopa % after 90' [2]: 112% | Reserpine hypothermy reversing effect, Rectal temperature res. (Reserpine hypothermy): 27.1 °C | Reserpine hypothermy reversing effect, Rectal temperature norm. (Reserpine hypothermy): 36.3 °C | Reserpine hypothermy reversing effect, Rectal temperature obs. time 1 h (Reserpine hypothermy): 37.6 °C | Reserpine hypothermy reversing effect, Rectal temperature obs. time 2 h (Reserpine hypothermy): 32.2 °C | Decrease of sleeping period (% related to the control animals) Hexobarb. [3]: 77% | Decrease of sleeping period (% related to the control animals) Ethanol (Ethanol narcosis): 74% | TSH effect (TSH): 3.8%

NC(=O)[C@@H]1CCCN1C(=O)[C@H](Cc1c[nH]cn1)NC(=O)[C@@H]1CCC(=O)N1 [TRH, L-pyroglutamyl-L-histidyl-L-prolinamide, reference compound]
Inhibition of Haloperidol catalepsy ED50 [1]: 80 mg/kg | Potentiation of the locomotive effect of L-Dopa % after 30' [2]: 100% | Potentiation of the locomotive effect of L-Dopa % after 60' [2]: 100% | Potentiation of the locomotive effect of L-Dopa % after 90' [2]: 100% | Reserpine hypothermy reversing effect, Rectal temperature res. (Reserpine hypothermy): 25.9 °C | Reserpine hypothermy reversing effect, Rectal temperature norm. (Reserpine hypothermy): 36.2 °C | Reserpine hypothermy reversing effect, Rectal temperature obs. time 1 h (Reserpine hypothermy): 33.5 °C | Reserpine hypothermy reversing effect, Rectal temperature obs. time 2 h (Reserpine hypothermy): 30.2 °C | Decrease of sleeping period (% related to the control animals) Hexobarb. [3]: 56% | Decrease of sleeping period (% related to the control animals) Ethanol (Ethanol narcosis): 35% | TSH effect (TSH): 100.0%
